Assay results published in paper PMC3403540, “Active Hydrophilic Components of the Medicinal Herb Salvia miltiorrhiza (Danshen) Potently Inhibit Organic Anion Transporters 1 (Slc22a6) and 3 (Slc22a8)” (Evidence-based Complementary and Alternative Medicine : eCAM, 2012).
pIC50, pKi: −log10 of the molar value. Counter-ions that a name gives are not always drawn. Like-named read-outs stand apart in the source and are kept apart here. One block for each molecule: values may come before it.

Key:
[1] = biological target: T1, mOat3 (Mus musculus, UniProt O88909); set-up: method as in PMID 18381565; settings: CHO-mOat3 cells, determined previously; cited from earlier work
T1 construct: expressed in transfected cells; host or cells: CHO (Chinese hamster ovary), stably transfected (CHO-mOat3)
T1 sequence (O88909 1-537): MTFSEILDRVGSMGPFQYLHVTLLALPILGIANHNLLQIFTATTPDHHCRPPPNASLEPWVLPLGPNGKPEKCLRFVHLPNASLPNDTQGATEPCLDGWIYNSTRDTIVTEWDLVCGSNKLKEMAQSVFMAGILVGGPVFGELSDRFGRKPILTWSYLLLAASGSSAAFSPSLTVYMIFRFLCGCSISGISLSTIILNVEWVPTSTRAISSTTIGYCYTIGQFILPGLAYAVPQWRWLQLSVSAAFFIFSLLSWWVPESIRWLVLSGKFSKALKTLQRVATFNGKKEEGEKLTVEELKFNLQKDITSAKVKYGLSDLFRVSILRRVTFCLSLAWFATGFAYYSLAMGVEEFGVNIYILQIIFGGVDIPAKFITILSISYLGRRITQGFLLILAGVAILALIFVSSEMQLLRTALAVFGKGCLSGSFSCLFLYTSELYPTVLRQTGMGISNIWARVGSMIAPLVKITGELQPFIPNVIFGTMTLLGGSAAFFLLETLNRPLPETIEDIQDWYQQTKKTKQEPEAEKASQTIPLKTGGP

[2] = biological target: T2, mOat1 (Mus musculus, UniProt Q8VC69); test: Inhibition of mOat1-mediated [3H]PAH uptake in CHO-mOat1 cells (cell accumulation assay); format: cell-based, murine; settings: read-out: inhibition of mOat1-mediated PAH uptake
T2 construct: expressed in transfected cells; host or cells: CHO (Chinese hamster ovary), stably transfected (CHO-mOat1)
T2 sequence (Q8VC69 1-545): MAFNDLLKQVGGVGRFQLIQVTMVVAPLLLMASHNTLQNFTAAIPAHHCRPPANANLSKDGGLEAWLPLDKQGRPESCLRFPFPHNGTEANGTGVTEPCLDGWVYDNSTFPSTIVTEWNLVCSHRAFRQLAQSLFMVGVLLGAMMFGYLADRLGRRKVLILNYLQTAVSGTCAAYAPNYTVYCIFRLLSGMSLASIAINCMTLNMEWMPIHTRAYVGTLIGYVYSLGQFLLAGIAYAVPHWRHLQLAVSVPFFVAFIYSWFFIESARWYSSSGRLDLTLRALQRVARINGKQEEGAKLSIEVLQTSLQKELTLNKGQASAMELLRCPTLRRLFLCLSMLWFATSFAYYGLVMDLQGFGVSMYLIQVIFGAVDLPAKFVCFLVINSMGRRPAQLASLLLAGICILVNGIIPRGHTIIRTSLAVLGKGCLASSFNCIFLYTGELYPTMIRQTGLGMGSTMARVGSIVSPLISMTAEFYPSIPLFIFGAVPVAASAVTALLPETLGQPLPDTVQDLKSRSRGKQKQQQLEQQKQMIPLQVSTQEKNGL
Protocol: (§1) Derivation of the stably transfected Chinese hamster ovary (CHO) cell lines expressing mOat1 (CHO-mOat1), mOat3 (CHO-mOat3), and the empty vector (FRT) transfected control cell line (CHO-FRT) was described previously.
Cell transport assay procedures were adapted from those previously published. In brief, 2 × 10^5 cells/well were seeded in 24-well tissue culture plates and grown in the absence of antibiotics for 48 hr. On the day of the experiment, cells were equilibrated with transport buffer for 10 min (500 μL of Hanks' balanced salt solution containing 10 mM HEPES, pH 7.4). […] After incubation, cells were immediately rinsed three times with ice-cold transport buffer, lysed, and analyzed via liquid scintillation counting. Uptake values were normalized to corresponding total protein content in cell lysates as determined by the Bradford method. Substrate accumulation is reported as picomoles of substrate per milligram protein. […] Kinetic calculations were performed using GraphPad Prism Software version 5.0 (GraphPad Software Inc., San Diego, CA, USA). Michaelis constant (K m) values were calculated by nonlinear regression using the Michaelis-Menten model. […] In this study, three curves were constructed (no inhibitor, plus two selected inhibitor concentrations) with uptake of substrate plotted as a function of its concentration for each condition. […] The parameter, α, can then be used to determine the mode of inhibition. When α is very large (α > 1), it indicates competitive inhibition. […] Results were confirmed by repeating all experiments at least three times with triplicate wells for each data point in every experiment.
Figure 3 Michaelis-Menten kinetics of PAH transport in CHO-mOat1 cells. In order to calculate K i values for mOat1, the K m value for PAH needed to be determined in the CHO-mOat1 cell system. […] The corrected curve (closed circles) was obtained by subtracting the nonspecific background uptake as measured in the CHO-FRT cells from CHO-mOat1 accumulation to allow analysis of mOat1-mediated activity. Experiments were repeated three times in triplicate, and Michaelis constant (K m) values were calculated by nonlinear regression using the Michaelis-Menten model. […] Graph shown is from a representative experiment with values plotted as mean ± S.D. (n = 3).
(§2) Figure 2 Inhibition profile of mOat1 and mOat3. […] (b) Inhibition of mOat3-mediated uptake of [^3H]ES (1 μM) by LSA, PCA, RMA, SAA, SAB, TSL, and probenecid (1000 μM) was measured in the CHO-mOat3 cells (10 min). […] Values are mean ± S.D. of triplicate values. ***denotes P < 0.001 as determined by one-way ANOVA followed by Dunnett's t-test.
Figure 4 K i determination for LSA, RMA, and SAA in the CHO-mOat1 cell line. […] (5 μM) in CHO-mOat1 cells was measured in the presence of increasing concentrations (10^−7 to 5 × 10^−4 M) of LSA, RMA, and SAA. Data were corrected for nonspecific background measured in the CHO-FRT cells prior to kinetic analysis. K i values were determined with non-linear regression and the “one-site competition” model using GraphPad Prism software. Graphs shown are from representative experiments with values plotted as mean ± S.D. (n = 3).

[3] = biological target: T1, mOat3; test: Inhibition of mOat3-mediated [3H]ES uptake in CHO-mOat3 cells (cell accumulation assay); format: cell-based, murine; settings: for inhibition at 1000 µM: read-out: inhibition of mOat3-mediated ES uptake
Protocol: as §1
Cell transport assay procedures were adapted from those previously published. In brief, 2 × 10^5 cells/well were seeded in 24-well tissue culture plates and grown in the absence of antibiotics for 48 hr. On the day of the experiment, cells were equilibrated with transport buffer for 10 min (500 μL of Hanks' balanced salt solution containing 10 mM HEPES, pH 7.4). […] After incubation, cells were immediately rinsed three times with ice-cold transport buffer, lysed, and analyzed via liquid scintillation counting. Uptake values were normalized to corresponding total protein content in cell lysates as determined by the Bradford method. Substrate accumulation is reported as picomoles of substrate per milligram protein. […] Kinetic calculations were performed using GraphPad Prism Software version 5.0 (GraphPad Software Inc., San Diego, CA, USA). Michaelis constant (K m) values were calculated by nonlinear regression using the Michaelis-Menten model. Mode of inhibition was identified by using mixed model inhibition analysis as follows: (1) Vmax Apparent =Vmax/(1+[I]/(α×Ki)),Km Apparent=Km1+[I]/Ki/(1+[I]/(α×Ki)),Y=Vmax Apparent×x/Km Apparent+x, where V max, K i, and I represent the maximum transport velocity without inhibitor, the inhibition constant generated from the data set under analysis, and the concentration of inhibitor, respectively. In this study, three curves were constructed (no inhibitor, plus two selected inhibitor concentrations) with uptake of substrate plotted as a function of its concentration for each condition. […] The parameter, α, can then be used to determine the mode of inhibition. When α is very large (α > 1), it indicates competitive inhibition. Otherwise, it indicates noncompetitive inhibition (α = 1) or uncompetitive inhibition (0 < α < 1). To estimate K i values, IC50 values were calculated using nonlinear regression and inserted into the Cheng-Prusoff equation: K i = IC50/(1 + [Substrate]/K m). Results were confirmed by repeating all experiments at least three times with triplicate wells for each data point in every experiment.
as §2, with “mOat3. […] (5 μM) by LSA, PCA, RMA, SAA, SAB, TSL, and probenecid (1000 μM) was measured in the CHO-mOat1 cells (10 min).” for “mOat3.”
Figure 5 K i determination for LSA, RMA, and SAA in the CHO-mOat3 cell line. One minute uptake of [^3H]ES (1 μM) in CHO-mOat3 cells was measured in the presence of increasing concentrations (10^−7 to 4 × 10^−4 M) of LSA, RMA, and SAA. Data were corrected for nonspecific background measured in the CHO-FRT cells prior to kinetic analysis. K i values were determined with non-linear regression and the “one-site competition” model using GraphPad Prism software. Graphs shown are from representative experiments with values plotted as mean ± S.D. (n = 3).

[4] = biological target: T2, mOat1; set-up: method as in PMID 21546538; settings: cited from earlier work
[5] = biological target: T1, mOat3; set-up: method as in PMID 21546538; settings: cited from earlier work
[6] = tested on: hOAT1; set-up: method as in PMID 15870380; settings: cited from earlier work
[7] = biological target: T1, mOat3; set-up: method as in PMID 19953504, PMID 17553798, PMID 18973812; settings: read-out: K i for mOat3; cited from earlier work
[8] = rats; cited from earlier work
[9] = 1 mM (1000 μM) inhibitor, 1 μM [3H]ES, 10 min, CHO-mOat3 cells

Molecule: C[C@]12CC[C@@H]3c4ccc(OS(=O)(=O)O)cc4CC[C@H]3[C@@H]1CCC2=O [ES, estrone sulfate]
K m of ES on mOat3 [1]: 12.2 ± 4.8 µM

Molecule: O=C(O)c1ccc(O)c(O)c1 [PCA, protocatechuic acid]
inhibition at 1000 µM [2]: > 95%
inhibition at 1000 µM [3]: > 91%

Molecule: COc1cccc2c1cc([N+](=O)[O-])c1c(C(=O)O)cc3c(c12)OCO3 [aristolochic acid]
K m as substrate for mOat1 [4]: 0.79 µM
K m as substrate for mOat3 [5]: 0.514 µM

Molecule: O=c1oc2c(O)c(O)cc3c(=O)oc4c(O)c(O)cc1c4c23 [ellagic acid]
pIC50 [6]: 6.68

inhibition at 1000 µM [3, 9]: > 91%
Molecule: CCCN(CCC)S(=O)(=O)c1ccc(C(=O)O)cc1 [probenecid, reference compound]
pKi [7]: 5.34

Molecule: salvianolic acid B [SAB]
inhibition of mOat3-mediated ES uptake [3, 9]: approximately 53%
increase of AUC on spiking additional SAA into Danshen preparations [8]: 82.4%
reduction of clearance on spiking additional SAA into Danshen preparations [8]: 46.8%
